Source: ChEMBL document CHEMBL3885861, “Open TG-GATES”

Organism: Rattus norvegicus
Assay: Open TG-GATES - Regimen: Daily Repeat
Type: toxicity, organism-based, Sprague-Dawley
Parameters: regimen Daily Repeat, gender Male, age 6 weeks
Details: in vivo, po, 0 mg/kg, route gavage, dose level Control; for APTT / Bas / Eos / Fbg / Hb / Ht / Lym / MCH / MCHC / MCV / Mono / Neu / PT / Plat / RBC / Ret / WBC: tissue Blood; for KIDNEY_L / KIDNEY_R / KIDNEY_TOTAL: tissue Kidney; for LIVER: tissue Liver; for A/G / ALP / ALT / AST / BUN / CRE / Ca / Cl / DBIL / GLC / IP / K / LDH / Na / PL / RALB / TBIL / TC / TG / TP / gamma-GTP: tissue Plasma

`CC1=C(CC(=O)O)c2cc(F)ccc2/C1=C\c1ccc([S+](C)[O-])cc1` (configuration not stated) showed a TERMINAL_BW (72 h, time 3 day) of 233.7 g, an APTT (72 h, time 3 day) of 16 s and a Bas (72 h, time 3 day) of 0%. The Eos (72 h, time 3 day) was 1%, the Fbg (72 h, time 3 day) was 298.2 mg/dL and the Hb (72 h, time 3 day) was 14.3 g/dL. For the same compound, the Ht (72 h, time 3 day) was 42.9%, the Lym (72 h, time 3 day) was 79% and the MCH (72 h, time 3 day) was 21.6 pg. For the same compound, the MCHC (72 h, time 3 day) was 33.3%, the MCV (72 h, time 3 day) was 64.9 fL and the Mono (72 h, time 3 day) was 2.2%. The Neu (72 h, time 3 day) was 17%, the PT (72 h, time 3 day) was 13.8 s and the Plat (72 h, time 3 day) was 126.4 x10_4/uL. For the same compound, the RBC (72 h, time 3 day) was 662.2 x10_4/ul, the Ret (72 h, time 3 day) was 7.1% and the WBC (72 h, time 3 day) was 84.9 x10_2/uL. The KIDNEY_L (72 h, time 3 day) was 1 g, the KIDNEY_R (72 h, time 3 day) was 1 g and the KIDNEY_TOTAL (72 h, time 3 day) was 1.9 g. For the same compound, the LIVER (72 h, time 3 day) was 11.1 g, the A/G (72 h, time 3 day) was 0.9 and the ALP (72 h, time 3 day) was 1760.4 IU/L. It also gave an ALT (72 h, time 3 day) of 44 IU/L, an AST (72 h, time 3 day) of 69.4 IU/L and a BUN (72 h, time 3 day) of 15 mg/dL. It also gave a CRE (72 h, time 3 day) of 0.2 mg/dL, a Ca (72 h, time 3 day) of 11.2 mg/dL and a Cl (72 h, time 3 day) of 105.8 meq/L. It also gave a DBIL (72 h, time 3 day) of 0.014 mg/dL, a GLC (72 h, time 3 day) of 180.6 mg/dL and an IP (72 h, time 3 day) of 7.5 mg/dL. For the same compound, the K (72 h, time 3 day) was 4.2 meq/L, the LDH (72 h, time 3 day) was 73.8 IU/L and the Na (72 h, time 3 day) was 142 meq/L. It also gave a PL (72 h, time 3 day) of 160.8 mg/dL, an RALB (72 h, time 3 day) of 2.7 g/dL and a TBIL (72 h, time 3 day) of 0.02 mg/dL. The TC (72 h, time 3 day) was 80.4 mg/dL, the TG (72 h, time 3 day) was 111.6 mg/dL and the TP (72 h, time 3 day) was 5.6 g/dL. It also gave a gamma-GTP (72 h, time 3 day) of 1 IU/L, a TERMINAL_BW ([…], time 7 day) of 270.8 g and a TERMINAL_BW ([…], time 14 day) of 336.8 g. For the same compound, the TERMINAL_BW ([…], time 28 day) was 383.5 g, the APTT ([…], time 7 day) was 16.4 s and the Bas ([…], time 7 day) was 0.2%. The Eos ([…], time 7 day) was 1%, the Fbg ([…], time 7 day) was 306.6 mg/dL and the Hb ([…], time 7 day) was 14.4 g/dL. It also gave a Ht ([…], time 7 day) of 42.3%, a Lym ([…], time 7 day) of 81.2% and an MCH ([…], time 7 day) of 21.3 pg. The MCHC ([…], time 7 day) was 34.1%, the MCV ([…], time 7 day) was 62.5 fL and the Mono ([…], time 7 day) was 2.6%. It also gave a Neu ([…], time 7 day) of 14.4%, a PT ([…], time 7 day) of 13.6 s and a Plat ([…], time 7 day) of 131.7 x10_4/uL. For the same compound, the RBC ([…], time 7 day) was 678.6 x10_4/ul, the Ret ([…], time 7 day) was 5.9% and the WBC ([…], time 7 day) was 91.7 x10_2/uL. For the same compound, the APTT ([…], time 14 day) was 17.6 s, the Bas ([…], time 14 day) was 0.2% and the Eos ([…], time 14 day) was 1%. It also gave a Fbg ([…], time 14 day) of 299.8 mg/dL, a Hb ([…], time 14 day) of 15.1 g/dL and a Ht ([…], time 14 day) of 44.6%. It also gave a Lym ([…], time 14 day) of 76.8%, an MCH ([…], time 14 day) of 20.9 pg and an MCHC ([…], time 14 day) of 33.9%. For the same compound, the MCV ([…], time 14 day) was 61.5 fL, the Mono ([…], time 14 day) was 2.4% and the Neu ([…], time 14 day) was 19.6%. It also gave a PT ([…], time 14 day) of 14.2 s, a Plat ([…], time 14 day) of 124.3 x10_4/uL and an RBC ([…], time 14 day) of 725.2 x10_4/ul. The Ret ([…], time 14 day) was 4.3%, the WBC ([…], time 14 day) was 92.8 x10_2/uL and the APTT ([…], time 28 day) was 17.9 s. For the same compound, the Bas ([…], time 28 day) was 0.2%, the Eos ([…], time 28 day) was 1.8% and the Fbg ([…], time 28 day) was 282.6 mg/dL. It also gave a Hb ([…], time 28 day) of 15.2 g/dL, a Ht ([…], time 28 day) of 46.1% and a Lym ([…], time 28 day) of 79.2%. It also gave an MCH ([…], time 28 day) of 18.9 pg, an MCHC ([…], time 28 day) of 32.9% and an MCV ([…], time 28 day) of 57.4 fL. The Mono ([…], time 28 day) was 1.8%, the Neu ([…], time 28 day) was 16.2% and the PT ([…], time 28 day) was 13.2 s. The Plat ([…], time 28 day) was 109 x10_4/uL, the RBC ([…], time 28 day) was 802.4 x10_4/ul and the Ret ([…], time 28 day) was 2.4%. The WBC ([…], time 28 day) was 108.9 x10_2/uL, the KIDNEY_L ([…], time 7 day) was 1.1 g and the KIDNEY_R ([…], time 7 day) was 1.1 g. It also gave a KIDNEY_TOTAL ([…], time 7 day) of 2.1 g, a KIDNEY_L ([…], time 14 day) of 1.3 g and a KIDNEY_R ([…], time 14 day) of 1.3 g. The KIDNEY_TOTAL ([…], time 14 day) was 2.5 g, the KIDNEY_L ([…], time 28 day) was 1.3 g and the KIDNEY_R ([…], time 28 day) was 1.3 g. The KIDNEY_TOTAL ([…], time 28 day) was 2.6 g, the LIVER ([…], time 7 day) was 12.7 g and the LIVER ([…], time 14 day) was 14.8 g. It also gave an LIVER ([…], time 28 day) of 14.9 g, an A/G ([…], time 7 day) of 0.9 and an ALP ([…], time 7 day) of 1662.6 IU/L. The ALT ([…], time 7 day) was 45.2 IU/L, the AST ([…], time 7 day) was 69.8 IU/L and the BUN ([…], time 7 day) was 16.8 mg/dL. The CRE ([…], time 7 day) was 0.2 mg/dL, the Ca ([…], time 7 day) was 10.9 mg/dL and the Cl ([…], time 7 day) was 104.4 meq/L. For the same compound, the DBIL ([…], time 7 day) was 0.012 mg/dL, the GLC ([…], time 7 day) was 183 mg/dL and the IP ([…], time 7 day) was 7.2 mg/dL. The K ([…], time 7 day) was 4.2 meq/L, the LDH ([…], time 7 day) was 108.4 IU/L and the Na ([…], time 7 day) was 140.4 meq/L. For the same compound, the PL ([…], time 7 day) was 177 mg/dL, the RALB ([…], time 7 day) was 2.7 g/dL and the TBIL ([…], time 7 day) was 0.018 mg/dL. For the same compound, the TC ([…], time 7 day) was 94.2 mg/dL, the TG ([…], time 7 day) was 120.4 mg/dL and the TP ([…], time 7 day) was 5.7 g/dL. It also gave a gamma-GTP ([…], time 7 day) of 0.8 IU/L, an A/G ([…], time 14 day) of 0.9 and an ALP ([…], time 14 day) of 1218 IU/L. The ALT ([…], time 14 day) was 38.6 IU/L, the AST ([…], time 14 day) was 66.8 IU/L and the BUN ([…], time 14 day) was 17.8 mg/dL. The CRE ([…], time 14 day) was 0.2 mg/dL, the Ca ([…], time 14 day) was 11.1 mg/dL and the Cl ([…], time 14 day) was 105.4 meq/L. The DBIL ([…], time 14 day) was 0.012 mg/dL, the GLC ([…], time 14 day) was 180 mg/dL and the IP ([…], time 14 day) was 6 mg/dL. The K ([…], time 14 day) was 3.8 meq/L, the LDH ([…], time 14 day) was 65.6 IU/L and the Na ([…], time 14 day) was 143.6 meq/L. It also gave a PL ([…], time 14 day) of 163.4 mg/dL, an RALB ([…], time 14 day) of 2.8 g/dL and a TBIL ([…], time 14 day) of 0.044 mg/dL. It also gave a TC ([…], time 14 day) of 73.2 mg/dL, a TG ([…], time 14 day) of 175.4 mg/dL and a TP ([…], time 14 day) of 5.9 g/dL. It also gave a gamma-GTP ([…], time 14 day) of 1 IU/L, an A/G ([…], time 28 day) of 0.8 and an ALP ([…], time 28 day) of 1152 IU/L. The ALT ([…], time 28 day) was 35.8 IU/L, the AST ([…], time 28 day) was 63.6 IU/L and the BUN ([…], time 28 day) was 16.8 mg/dL. It also gave a CRE ([…], time 28 day) of 0.3 mg/dL, a Ca ([…], time 28 day) of 10.3 mg/dL and a Cl ([…], time 28 day) of 105 meq/L. It also gave a DBIL ([…], time 28 day) of 0.012 mg/dL, a GLC ([…], time 28 day) of 192.2 mg/dL and an IP ([…], time 28 day) of 6.5 mg/dL. The K ([…], time 28 day) was 3.6 meq/L, the LDH ([…], time 28 day) was 82.8 IU/L and the Na ([…], time 28 day) was 142 meq/L. The PL ([…], time 28 day) was 128.8 mg/dL, the RALB ([…], time 28 day) was 2.7 g/dL and the TBIL ([…], time 28 day) was 0.074 mg/dL. It also gave a TC ([…], time 28 day) of 57.4 mg/dL, a TG ([…], time 28 day) of 125.6 mg/dL and a TP ([…], time 28 day) of 6 g/dL. For the same compound, the gamma-GTP ([…], time 28 day) was 1 IU/L.
